# Literature values, collected in US20170119704A1, “TREATMENT OF COGNITIVE IMPAIRMENT” (Ovid Therapeutics Inc., priority 2015, published 2017).
# Conditions: in vivo
smiles,measurement,value
"CN(C)CCO/N=C(/C=C/c1ccc(O)cc1)c1ccccc1F [Eplivanserin, (1Z,2E)-1-(2-fluorophenyl)-3-(4-hydroxyphenyl)-prop-2-en-1-one-O-(2-dimethylaminoethyl)-oxime]",absorption (well absorbed),> 70%
